Publication PMC5298035 (Clinical Pharmacology in Drug Development, 2016)
Where a name gives a salt, the structure may show the parent alone. Read-outs that look alike come from different tables or passages of the source.

Legend:
[1] = Safety; type: in vivo, human; conditions: rifampin study, by treatment period
[2] = test system: CYP3A4; conditions: cited from earlier work
[3] = test system: CYP3A4; conditions: cited from earlier work; remark: listed apart in the source
[4] = type: in vivo, human
[5] = Safety; type: in vivo, human; conditions: midazolam study, by treatment period
[6] = Phase 1 ethinyl estradiol/norethindrone interaction study: plasma PK; type: in vivo, human; conditions: for Geometric least-squares mean ratio, AUC0-∞ / Geometric least-squares mean ratio, AUClast / Geometric least-squares mean ratio, Cmax: (90% CI); for AUCτ: n = 23, arithmetic mean (SD)
[7] = test system: esterases; conditions: in the gut and blood; cited from earlier work
[8] = test system: CYP3A7; conditions: CYP3A7-expressing human liver microsomes; ref data on file; cited from earlier work
[9] = test system: CYP2B6; conditions: in vitro; ref unpublished data; cited from earlier work
[10] = coadministration with lopinavir/ritonavir; cited from earlier work
[11] = test system: CYP2C9; conditions: cultured human hepatocytes; ref data on file; cited from earlier work
[12] = test system: CYP2E1; conditions: pooled human liver microsomes; ref data on file; cited from earlier work
[13] = active drug released from prodrug; cited from earlier work
[14] = test system: CYP2C19; conditions: pooled human liver microsomes; ref data on file; cited from earlier work
[15] = test system: CYP2D6; conditions: pooled human liver microsomes; ref data on file; cited from earlier work
[16] = test system: CYP2A6; conditions: pooled human liver microsomes; ref data on file; cited from earlier work
[17] = test system: P-glycoprotein; conditions: in vitro; ref unpublished data; cited from earlier work
[18] = cited from earlier work
[19] = active drug released from prodrug; cited from earlier work; remark: listed apart in the source
[20] = test system: CYP2B6; conditions: CYP2B6-expressing human liver microsomes; ref data on file; cited from earlier work
[21] = test system: CYP2C8; conditions: CYP2C8-expressing human liver microsomes; ref data on file; cited from earlier work
[22] = biological target: T1, CYP3A4 (Homo sapiens, UniProt P08684); conditions: CYP3A4-expressing human liver microsomes; ref data on file; cited from earlier work
[23] = type: in vivo, human; remark: listed apart in the source
[24] = test system: CYP1A2; conditions: cultured human hepatocytes; ref data on file; cited from earlier work
[25] = Safety; type: in vivo, human; conditions: ethinyl estradiol/norethindrone study, by treatment period
[26] = test system: CYP2C8; conditions: cultured human hepatocytes; ref data on file; cited from earlier work
[27] = test system: CYP2C9; conditions: in vitro; ref unpublished data; cited from earlier work
[28] = biological target: T1, CYP3A4; conditions: cultured human hepatocytes; ref data on file; cited from earlier work
[29] = test system: CYP4A11; conditions: pooled human liver microsomes; ref data on file; cited from earlier work
[30] = test system: CYP2C9; conditions: pooled human liver microsomes; ref data on file; cited from earlier work
[31] = Safety; type: in vivo, human; conditions: ketoconazole study, by treatment period
[32] = test system: CYP1A2; conditions: pooled human liver microsomes; ref data on file; cited from earlier work
[33] = Phase 1 rifampin interaction study: plasma PK of isavuconazole; type: in vivo, human
[34] = test system: CYP3A5; conditions: CYP3A5-expressing human liver microsomes; ref data on file; cited from earlier work
[35] = test system: CYP2C19; conditions: cultured human hepatocytes; ref data on file; cited from earlier work
[36] = biological target: T1, CYP3A4; assay: Clinical CYP3A4 drug-drug interaction classification; type: in vivo
[37] = test system: CYP2B6; conditions: cultured human hepatocytes; ref data on file; cited from earlier work
[38] = midazolam + isavuconazole vs midazolam alone, (90% CI)
[39] = midazolam, presence vs absence of isavuconazole
[40] = norethindrone, coadministration with isavuconazole vs alone
[41] = norethindrone: + isavuconazole vs alone
[42] = both, human, plasma, po, 200 mg
[43] = isavuconazole + ketoconazole vs isavuconazole alone, (90% CI)
[44] = presence vs absence of ketoconazole 200 mg BID
[45] = coadministration with rifampin 600 mg QD vs isavuconazole alone
[46] = isavuconazole + rifampin vs isavuconazole alone, (90% CI)
[47] = ethinyl estradiol, presence vs absence of isavuconazole
[48] = ethinyl estradiol: + isavuconazole vs alone

T1 sequence (P08684 whole entry): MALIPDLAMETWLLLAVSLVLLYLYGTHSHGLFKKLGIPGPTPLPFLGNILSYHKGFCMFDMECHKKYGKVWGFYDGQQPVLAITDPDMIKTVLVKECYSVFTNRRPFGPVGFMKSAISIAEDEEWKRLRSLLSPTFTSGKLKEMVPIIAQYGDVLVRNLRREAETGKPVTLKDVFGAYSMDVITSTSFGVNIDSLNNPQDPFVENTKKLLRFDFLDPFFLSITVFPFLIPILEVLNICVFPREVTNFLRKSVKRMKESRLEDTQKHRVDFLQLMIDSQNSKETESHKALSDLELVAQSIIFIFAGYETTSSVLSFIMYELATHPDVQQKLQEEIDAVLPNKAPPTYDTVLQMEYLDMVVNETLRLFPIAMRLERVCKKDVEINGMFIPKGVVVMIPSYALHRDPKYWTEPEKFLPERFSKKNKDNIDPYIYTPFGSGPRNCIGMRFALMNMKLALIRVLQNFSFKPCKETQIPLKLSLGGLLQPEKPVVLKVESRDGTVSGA

Compound: CO[C@H]1/C=C/O[C@@]2(C)Oc3c(C)c(O)c4c(O)c(c(/C=N/N5CCN(C)CC5)c(O)c4c3C2=O)NC(=O)/C(C)=C\C=C\[C@H](C)[C@H](O)[C@@H](C)[C@@H](O)[C@@H](C)[C@H](OC(C)=O)[C@@H]1C [Rifampin, rifampin, reference compound]
- subjects who experienced TEAEs [1]: 19 n
- subjects with drug-related TEAEs [1]: 7 n

Compound: C[C@@H](c1ncncc1F)[C@](O)(Cn1cncn1)c1ccc(F)cc1F [voriconazole]
- increases in ethinyl estradiol and norethindrone on coadministration [2]: less than 2 fold
- increase in midazolam AUC on coadministration [3]: approximately 10 fold

Compound: CCC(C)n1ncn(-c2ccc(N3CCN(c4ccc(OCC5COC(Cn6cncn6)(c6ccc(Cl)cc6Cl)O5)cc4)CC3)cc2)c1=O (centres unmarked) [itraconazole]
- increase in exposure of midazolam on coadministration [3]: up to 10 fold

Compound: Cc1ncc2n1-c1ccc(Cl)cc1C(c1ccccc1F)=NC2 [Midazolam, midazolam]
- AUC(0-inf) ([4]; both, human, plasma, po, 3 mg): 46 ng·h/mL
- AUC(0-t) ([4]; both, human, plasma, po, 3 mg): 44.5 ng·h/mL
- Cmax ([4]; both, human, plasma, po, 3 mg): 10.7 ng/mL
- Tmax ([4]; both, human, plasma, po, 3 mg): 1 h
- half-life ([4]; both, human, plasma, po, 3 mg): 324 min
- CL/F ([4]; midazolam 3 mg single oral dose alone, day 1, n = 23, arithmetic mean (SD)): 72.1 (24.6) L/h
- Geometric least-squares mean ratio, AUC0-∞ [4, 38]: 203 (173, 238) %
- Geometric least-squares mean ratio, AUClast [4, 38]: 206 (175, 243) %
- Geometric least-squares mean ratio, Cmax [4, 38]: 172 (144, 205) %
- increase in mean AUC0-∞ [4, 39]: 103%
- increase in mean AUClast [4, 39]: 106%
- increase in mean Cmax [4, 39]: 72%
- subjects who experienced TEAEs [5]: 9 n
- subjects with drug-related TEAEs [5]: 6 n

Compound: C#C[C@]1(O)CC[C@H]2[C@@H]3CCC4=CC(=O)CC[C@@H]4[C@H]3CC[C@@]21C [Norethindrone, norethindrone]
- Tmax ([6]; female, human, plasma, po): 1 h
- half-life ([6]; female, human, plasma, po): 786 min
- increase in mean AUC0-∞ [6, 40]: 16%
- increase in mean AUClast [6, 40]: 16%
- increase in mean Cmax [6, 40]: 6%
- Geometric least-squares mean ratio, AUC0-∞ [6, 41]: 116 (109, 123) %
- Geometric least-squares mean ratio, AUClast [6, 41]: 116 (109, 123) %
- Geometric least-squares mean ratio, Cmax [6, 41]: 106 (93, 120) %

Compound: CNCC(=O)OCc1cccnc1N(C)C(=O)OC(C)[n+]1cnn(C[C@](O)(c2cc(F)ccc2F)[C@@H](C)c2nc(-c3ccc(C#N)cc3)cs2)c1 (some centres unmarked) [isavuconazonium sulfate]
- hydrolysis of prodrug by esterases [7]: rapid hydrolysis

Compound: C[C@@H](c1nc(-c2ccc(C#N)cc2)cs1)[C@](O)(Cn1cncn1)c1cc(F)ccc1F [Isavuconazole, isavuconazole]
- ratio of the remaining isavuconazole [8]: > 98%
- substrate of CYP2B6 [9]: not a substrate
- increase in isavuconazole exposure [10]: approximately 2 fold
- maximum increase in CYP2C9 mRNA [11]: 3.1 fold
- maximum increase in diclofenac 4'-hydroxylase activity (CYP2C9) [11]: none
- correlation of isavuconazole metabolism with CYP2E1 activity [12]: No correlations
- solubility (in words) [13]: poorly soluble
- correlation of isavuconazole metabolism with CYP2C19 activity [14]: No correlations
- correlation of isavuconazole metabolism with CYP2D6 activity [15]: No correlations
- correlation of isavuconazole metabolism with CYP2A6 activity [16]: No correlations
- substrate of P-glycoprotein [17]: not a substrate
- Cmax ([4]; both, human, plasma, oral, 200 mg): 5200 ng/mL
- mean AUCτ in the presence vs absence of midazolam (in words) ([4]; isavuconazole 200 mg QD): comparable
- mean Cmax in the presence vs absence of midazolam (in words) ([4]; isavuconazole 200 mg QD): comparable
- Oral bioavailability [18]: 98%
- food or pH effect on absorption [18]: no evidence of a clinically relevant food or pH effect
- permeability (in words) [19]: highly permeable
- ratio of the remaining isavuconazole [20]: > 98%
- subjects who experienced TEAEs [1]: 19 n
- subjects with drug-related TEAEs [1]: 17 n
- ratio of the remaining isavuconazole [21]: > 98%
- ratio of the remaining isavuconazole [22]: 33.8%
- AUC(0-inf) [23, 42]: 84800 ng·h/mL
- AUC(0-t) [23, 42]: 64900 ng·h/mL
- Cmax [23, 42]: 2200 ng/mL
- Tmax [23, 42]: 2 h
- half-life [23, 42]: 4.88 days
- CL/F ([23]; isavuconazole 200 mg single oral dose alone, n = 12, arithmetic mean (SD)): 2.5 (0.6) L/h
- Geometric least-squares mean ratio, AUC0-∞ [23, 43]: 522 (409, 666) %
- Geometric least-squares mean ratio, AUClast [23, 43]: 373 (319, 435) %
- Geometric least-squares mean ratio, Cmax [23, 43]: 109 (93, 127) %
- increase in mean AUC0-∞ [23, 44]: 422%
- increase in mean AUClast [23, 44]: 273%
- increase in mean Cmax [23, 44]: 9%
- maximum increase in CYP1A2 mRNA [24]: 5.4 fold
- maximum increase in phenacetin O-dealkylase activity (CYP1A2) [24]: 2.8 fold
- subjects who experienced TEAEs [25]: 6 n
- subjects with drug-related TEAEs [25]: 3 subjects
- subjects who experienced TEAEs [5]: 10 n
- subjects with drug-related TEAEs [5]: 5 n
- Cmax ([6]; female, human, plasma, oral, 200 mg): 5800 ng/mL
- AUCτ ([6]; isavuconazole 200 mg QD + ethinyl estradiol 35 μg/norethindrone 1 mg, day 13): 81.4 (19.0) h·μg/mL
- AUCτ ([6]; isavuconazole 200 mg QD alone, day 12): 80.8 (18.7) h·μg/mL
- maximum increase in CYP2C8 mRNA [26]: 4.3 fold
- maximum increase in amodiaquine N-dealkylase activity (CYP2C8) [26]: 2.6 fold
- substrate of CYP2C9 [27]: not a substrate
- increase in CYP3A4 mRNA [28]: ≤ 6.4 fold
- increase in testosterone hydroxylation activity (CYP3A4) [28]: up to 3.4 fold
- correlation of isavuconazole metabolism with CYP4A11 activity [29]: No correlations
- correlation of isavuconazole metabolism with CYP2C9 activity [30]: No correlations
- subjects reporting TEAEs [31]: 2 (16.7%) subjects
- correlation of isavuconazole metabolism with CYP1A2 activity [32]: No correlations
- decrease in mean AUC0-∞ [33, 45]: 97%
- decrease in mean AUClast [33, 45]: 97%
- decrease in mean AUCτ [33, 45]: 90%
- decrease in mean Cmax [33, 45]: 75%
- Geometric least-squares mean ratio, AUC0-∞ [33, 46]: 3 (2, 3) %
- Geometric least-squares mean ratio, AUClast [33, 46]: 3 (3, 3) %
- Geometric least-squares mean ratio, AUCτ [33, 46]: 10 (9, 11) %
- Geometric least-squares mean ratio, Cmax [33, 46]: 25 (23, 27) %
- Tmax ([33]; male, human, plasma, po): 2 h
- ratio of the remaining isavuconazole [34]: 68.4%
- increase in CYP2C19 mRNA levels [35]: No isavuconazole‐induced increases
- increase in S-(+)-mephenytoin 4'-hydroxylation activity (CYP2C19) [35]: No isavuconazole‐induced increases
- classification as inhibitor of CYP3A4 ([36]; from midazolam coadministration in healthy adults, in vivo): moderate inhibitor
- classification as substrate of CYP3A4 ([36]; from rifampin and ketoconazole coadministration in healthy adults): sensitive substrate
- maximum increase in CYP2B6 mRNA [37]: 11.4 fold
- maximum increase in bupropion hydroxylase activity (CYP2B6) [37]: 13.4 fold

Compound: CC[C@@H]([C@H](C)O)n1ncn(-c2ccc(N3CCN(c4ccc(OC[C@@H]5CO[C@@](Cn6cncn6)(c6ccc(F)cc6F)C5)cc4)CC3)cc2)c1=O [posaconazole]
- increase in exposure of midazolam on coadministration [3]: up to 5 fold

Compound: C#C[C@]1(O)CC[C@H]2[C@@H]3CCc4cc(O)ccc4[C@H]3CC[C@@]21C [Ethinyl Estradiol, ethinyl estradiol]
- increase in mean AUC0-∞ [6, 47]: 8%
- increase in mean AUClast [6, 47]: 10%
- increase in mean Cmax [6, 47]: 14%
- Geometric least-squares mean ratio, AUC0-∞ [6, 48]: 108 (103, 113) %
- Geometric least-squares mean ratio, AUClast [6, 48]: 110 (104, 116) %
- Geometric least-squares mean ratio, Cmax [6, 48]: 114 (103, 126) %
- half-life ([6]; female, human, plasma, po): 1230 min

Compound: CC(=O)N1CCN(c2ccc(OCC3COC(Cn4ccnc4)(c4ccc(Cl)cc4Cl)O3)cc2)CC1 (centres unmarked) [Ketoconazole, ketoconazole, reference compound]
- Geometric least-squares mean ratio, Cmax ([23]; ketoconazole + isavuconazole vs ketoconazole alone, 90% CI 105, 134): 118%
- Geometric least-squares mean ratio, AUCτ ([23]; ketoconazole + isavuconazole vs ketoconazole alone, 90% CI 112, 144): 127%
- subjects reporting TEAEs [31]: no subjects
